Measurements reported in the supplement of paper PMC10307832.

Experiments:
Assay in all cases: relative viability (nuclei count vs DMSO), 5 days (fraction); higher = more cells survive
[1] = compound: Cc1ccc2nc(NCCN)c3ncc(C)n3c2c1 + C[C@@H](Oc1cc(-c2cnn(C3CCNCC3)c2)cnc1N)c1c(Cl)ccc(F)c1Cl [Crizotinib] (partner 1 µM)
In short: (§1)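 Relative viability was taken as the ratio of nuclei in treated wells to nuclei in vehicle wells. Lung cancer cell lines in 1536-well plates received compounds by pin tool one day after seeding, either one drug alone or a fixed anchor-drug dose plus five library-drug doses (not always all listed) in √10 steps. Nuclei were counted on 4× images after 5 days of treatment, and values are medians of duplicate plates.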

[2] = compound: Cc1ccc2nc(NCCN)c3ncc(C)n3c2c1 + Nc1ncn([C@H]2C[C@H](O)[C@@H](CO)O2)c(=O)n1 [Decitabine] (partner 2 µM)
In short: as §1

Salubrinal + Tozasertib = compound: O=C(/C=C/c1ccccc1)NC(NC(=S)Nc1cccc2cccnc12)C(Cl)(Cl)Cl [Salubrinal] + Cc1cc(Nc2cc(N3CCN(C)CC3)nc(Sc3ccc(NC(=O)C4CC4)cc3)n2)n[nH]1 [Tozasertib] (partner 0.1 µM)
In short: as §1

Salubrinal + Vorinostat = compound: O=C(/C=C/c1ccccc1)NC(NC(=S)Nc1cccc2cccnc12)C(Cl)(Cl)Cl [Salubrinal] + O=C(CCCCCCC(=O)Nc1ccccc1)NO [Vorinostat] (partner 1 µM)
In short: as §1

Cell Line	relative viability ([1]; first compound 0.04 µM)	relative viability ([1]; first compound 0.1265 µM)	relative viability ([1]; first compound 0.4 µM)	relative viability ([1]; first compound 1.265 µM)	relative viability ([1]; first compound 4 µM)	relative viability ([2]; first compound 0.04 µM)	relative viability ([2]; first compound 0.1265 µM)	relative viability ([2]; first compound 0.4 µM)	relative viability ([2]; first compound 1.265 µM)	relative viability ([2]; first compound 4 µM)	relative viability (Salubrinal + Tozasertib; first compound 0.08 µM)	relative viability (Salubrinal + Tozasertib; first compound 0.253 µM)	relative viability (Salubrinal + Tozasertib; first compound 0.8 µM)	relative viability (Salubrinal + Tozasertib; first compound 2.53 µM)	relative viability (Salubrinal + Tozasertib; first compound 8 µM)	relative viability (Salubrinal + Vorinostat; first compound 0.08 µM)	relative viability (Salubrinal + Vorinostat; first compound 0.253 µM)	relative viability (Salubrinal + Vorinostat; first compound 0.8 µM)	relative viability (Salubrinal + Vorinostat; first compound 2.53 µM)	relative viability (Salubrinal + Vorinostat; first compound 8 µM)
PC-14	1.08	0.862	0.864	0.901	0.892	0.227	0.237	0.247	0.179	0.148	0.629	0.663	0.638	0.525	0.601	0.719	0.585	0.672	0.645	0.5
NCI-H1651	0.732	0.795	0.838	0.888	0.814	0.628	0.664	0.69	0.637	0.518	0.711	0.639	0.776	0.608	0.734	0.597	0.478	0.669	0.527	0.546
HARA	0.951	0.916	1.02	0.746	0.917	0.492	0.758	0.651	0.419	0.546	0.122	0.108	0.111	0.0979	0.106	0.617	0.631	0.597	0.478	0.475
NCI-H1650	0.965	0.969	0.995	0.97	0.571	0.365	0.392	0.374	0.393	0.38	0.419	0.349	0.336	0.327	0.407	0.76	0.592	0.672	0.456	0.648
